Test results published in US20240390468A1, “SURVIVIN AND MAGE-A9 DUAL-TARGETED IMMUNOTHERAPY” (IMMUNOVACCINE TECHNOLOGIES INC., priority 2022, published 2024).
“Also recorded” adds a separate entry of the source.

Legend:
[1] = system: spleen cells of HLA-A11 transgenic mice immunized with MAGE-A9 full length recombinant protein; experiment: IFN-γ ELISPOT, MAGE-A9 immunogenic HLA-A3/A11 peptides; assay type: cell-based
Excerpt: FIGS. 23A and 23B depict IFN-γ ELISPOT results of the experiment for the MAGE-A9 immunogenic HLA-A3/A11 peptides. IFN-γ response induced by HLA-A3 candidate peptides of MAGE-A9 as detected by IFN-γ ELISPOT assay. Two group of 3 and 10 HLA-A11 transgenic mice were immunized respectively with DPX-Empty alone (as control; bar on the left) and with MAGE-A9 full-length recombinant protein admixed with poly(I:C) (bar on the right). Mice were sacrificed 36 days after 1st immunization and spleen cells were tested in IFN-γ ELISPOT after stimulation with dendritic cells loaded with the individual candidate or control peptides (FIG. 23A) or after direct stimulation with the individual candidate or control peptides (FIG. 23B). DCE: Dendritic cell empty; NS: Non stimulated; A3-Ctrl; irrelevant control HLA-A3 peptide.
(§1) IFN-γ ELISPOTs was performed to measure antigen-specific T-cell activation upon stimulation with peptides containing the putative epitopes. […]
(§2) Groups of ten 6-12 weeks-old HLA-A1, HLA-A2/DR1, HLA-A24, HLA-All (as a surrogate for HLA-A3 allele) and HLA-B7 male/female mice were immunized three times s.c. and i.p., 14 days apart, with 30 μg of MAGE-A9 his-tag full-length recombinant protein admixed with 50 μg (s.c.) or 200 μg (i.p.) of Poly(I:C) in a final volume of 100 μl. On day 34, mice were sacrificed. Splenocytes were isolated from spleens and treated with ACK lysis buffer to lyse contaminating erythrocytes. Splenocytes were stimulated with the candidate peptides alone or with dendritic cells loaded with the candidate peptides. The immune response was measured using IFN-γ ELISPOT assays (BD). Then spots were counted using an ELISPOT counter (CTL Analyzer) and enumerated as number of spot-forming units (SFU) per well. Each experiment was repeated two or three times (except for the experiment with HLA-A11 (as a surrogate for HLA-A3 allele) mice which was done only once).
(§3) Student's t-tests were performed to compare two groups (non-stimulated versus stimulated with test peptide). […]

[2] = system: spleen cells of HLA-A24 transgenic mice immunized with MAGE-A9 full length recombinant protein; experiment: IFN-γ ELISPOT, MAGE-A9 immunogenic HLA-A24 peptides; assay type: cell-based; settings: three experiments
Experimental: FIGS. 16A and 16B depict IFN-γ ELISPOT results of 1st experiment for the MAGE-A9 immunogenic HLA-A24 peptides. IFN-γ response induced against HLA-A24 candidate peptides of MAGE-A9 as detected by IFN-γ ELISPOT assay. Two group of 3 and 5 mice were immunized respectively with poly(I:C) alone (as control; bar on the left) and with MAGE-A9 full-length recombinant protein admixed with poly(I:C) (bar on the right). Mice were sacrificed 34 days after 1st immunization and spleen cells were tested in IFN-γ ELISPOT after stimulation with dendritic cells loaded with the individual candidate or control peptides (FIG. 16A) or after direct stimulation with the individual candidate or control peptides (FIG. 16B). DCE: Dendritic cell empty; NS: Non stimulated; A24-Ctrl; irrelevant control HLA-A24 peptide. Student T-test *p<0.05; ** p<0.005; *** p<0.0005; **** p<0.00005.
as §1, §2, §3

[3] = system: peptide-loaded RMA-S HHD cells; experiment: Chromium 51 release assay (CTL assay); assay type: cell-based, mice; settings: for CTL response (51Cr-release): effector:target 75:1, 50:1, 25:1, mice immunized with recombinant MAGE-A9 and poly(I:C)
[4] = system: spleen cells of HLA-A2/DR1 transgenic mice immunized with MAGE-A9 full length recombinant protein; experiment: IFN-γ ELISPOT, MAGE-A9 immunogenic HLA-A2 peptides; assay type: cell-based; settings: for IFN-γ response (ELISPOT): HLA-A2/DR1 mice, three experiments
Experimental: FIGS. 11A and 11B depict IFN-γ ELISPOT results of 1st experiment for the MAGE-A9 immunogenic HLA-A2 peptides. Induction of IFN-γ response induced against HLA-A2 peptides of MAGE-A9 as detected by IFN-γ ELISPOT assay. A group of 10 mice was immunized with MAGE-A9 full length recombinant protein admixed with poly(I:C). Mice were sacrificed 34 days after 1st immunization and spleen cells were tested in IFN-γ ELISPOT after stimulation with dendritic cells loaded with the individual candidate or control peptides (FIG. 11A) or after direct stimulation with the individual candidate or control peptides (FIG. 11B). DCE: Dendritic cell empty; NS: Non stimulated; INF, gp100 and EBV: irrelevant HLA-A2 control peptides. Student T-test *p<0.05; ** p<0.005; *** p<0.0005; **** p<0.00005.
as §1, §2
Student's t-tests were performed to compare two groups (non-stimulated versus stimulated with test peptide). To indicate significance, p-values are represented in the figures by * p<0.05, ** p<0.01, *** p<0.001, and **** p=0.0001. All data are presented as means with standard error of the mean (SEM).
The experiment was repeated three times for a total number of 30 mice (FIGS. 11, 12, and 13). The immune response for peptides 111, 24, 223 and 270 via Chromium 51 (^51Cr) release assays (CTL assays) is also presented in Example 6. […] These tests offer a very high sensitivity, which explains why the INF-Y response for these peptides appears to be weaker, although the peptides are responsive in other assays (see Examples 6).

[5] = target: MHC class 1 allele A*02:01 (Homo sapiens, UniProt P04439, D140Y/D185E/D98H/E176V/E277Q/G131W/G231S/I119V/I121R/I166T/I218V/L300P/L318F/N151K/N90K/P208A/P217A/Q86G/Q94H/R138H/R169H/T345S); experiment: REVEAL binding of HLA-A2 binding peptides; settings: for binding to MHC class 1 allele A*02:01 (in words): Higher REVEAL score
HLA-A2 = target: T1, HLA-A2 (Homo sapiens, UniProt P04439, D140Y/D185E/D98H/E176V/E277Q/G131W/G231S/I119V/I121R/I166T/I218V/L300P/N151K/N90K/P208A/P217A/Q86G/Q94H/R138H/R169H); experiment: Flex-T in vitro HLA binding assay (HLA class I ELISA); settings: Flex-T monomer peptide exchange, β2-microglobulin ELISA
T1 construct: purchased Biolegend, USA
Experimental: Internal in vitro assay that assesses the binding of each of the peptides to HLA-A2 as a part of the potency assay development was performed using the Flex-T in vitro binding assay.
Flex-T technology (Biolegend, USA) offers the opportunity to quantitatively measure the binding affinity of peptides to their respective MHC Class I receptors (In this case HLA-A2). Flex-T was made of MHC monomers loaded with a peptide that can be degraded using a UV light source. This allowed for a peptide exchange when the UV irradiation was done in the presence of the peptide of interest which is not UV-labile.
The binding of the peptide of interest to the Flex-T monomer was quantified using an HLA class I ELISA method based on the detection of β2-microglobulin subunit of HLA class I complexes, after capturing the complex through the conjugated biotin. To this end, biotinylated HLA class I monomer-peptide complex was first captured in streptavidin coated microtiter wells. Subsequently, lRP-conjugated anti-human 02-microglobulin was added to detect intact HLA class I complexes. Only intact HLA class I complexes were recognized.
The relative potency was then calculated compared to a reference lot using parallel line analysis as per USP <1034>.

[6] = system: spleen cells of HLA-A1 transgenic mice immunized with MAGE-A9 full length recombinant protein; experiment: IFN-γ ELISPOT, MAGE-A9 immunogenic HLA-A1 peptides; assay type: cell-based
Experimental: FIGS. 14A and 14B depict IFN-γ ELISPOT results of 1st experiment for the MAGE-A9 immunogenic HLA-A1 peptides. IFN-γ response induced by HLA-A1 candidate peptides of MAGE-A9 as detected by IFN-γ ELISPOT assay. Two groups of 3 and 5 mice were immunized respectively with poly(I:C) alone (as control; bar on the left) and with MAGE-A9 full-length recombinant protein admixed with poly(I:C) (bar on the right). Mice were sacrificed 34 days after 1st immunization and spleen cells were tested in IFN-γ ELISPOT after stimulation with dendritic cells loaded with the individual candidate or control peptides (FIG. 14A) or after direct stimulation with the individual candidate or control peptides (FIG. 14B). DCE: Dendritic cell empty; NS: Non stimulated; Ctrl HLA-A1; irrelevant control HLA-A1 peptide. Student T-test *p<0.05; ** p<0.005; *** p<0.0005; **** p<0.00005. […]
(§4) Groups of ten 6-12 weeks-old HLA-A1, HLA-A2/DR1, HLA-A24, HLA-All (as a surrogate for HLA-A3 allele) and HLA-B7 male/female mice were immunized three times s.c. and i.p., 14 days apart, with 30 μg of MAGE-A9 his-tag full-length recombinant protein admixed with 50 μg (s.c.) or 200 μg (i.p.) of Poly(I:C) in a final volume of 100 μl. […] The immune response was measured using IFN-γ ELISPOT assays (BD). Then spots were counted using an ELISPOT counter (CTL Analyzer) and enumerated as number of spot-forming units (SFU) per well. […]

[7] = system: spleen cells of HLA-B7 transgenic mice immunized with MAGE-A9 full length recombinant protein; experiment: IFN-γ ELISPOT, MAGE-A9 immunogenic HLA-B7 peptides; assay type: cell-based; settings: individual responses per mouse
Experimental: FIGS. 19A and 19B depict IFN-γ ELISPOT results of 1st experiment for the MAGE-A9 immunogenic HLA-B7 peptides. IFN-γ response induced by HLA-B7 candidate peptides of MAGE-A9 as detected by IFN-γ ELISPOT assay. Two group of 3 and 5 mice were immunized respectively with poly(I:C) alone (as control; bar on the left) and with MAGE-A9 full-length recombinant protein admixed with poly(I:C) (bar on the right). Mice were sacrificed 34 days after 1st immunization and spleen cells were tested in IFN-γ ELISPOT after stimulation with dendritic cells loaded with the individual candidate or control peptides (FIG. 19A) or after direct stimulation with the individual candidate or control peptides (FIG. 19B). DCE: Dendritic cell empty; NS: Non stimulated; B7-Ctrl; irrelevant control HLA-B7 peptide. Student T-test *p<0.05; ** p<0.005; *** p<0.0005; **** p<0.00005. […]
as §4

FLLHKYRVK [peptide 118, MAGE-A9 peptide antigen]
IFN-γ response (ELISPOT) ([1]; only with peptide-loaded DC): good reactivity

NYKRYFPVI [peptide 141]
IFN-γ response (ELISPOT) [2]: interesting; also recorded: highest responder; also recorded: good immune responses; also recorded: stronger and more consistent results

GLMGAQEPT [MAGE-A9 24, MAGE-A9 peptide antigen]
CTL response (51Cr-release) [3]: elicited a response

KVAELVHFL [MAGE-A9 111]
IFN-γ response (ELISPOT) [4]: consistently higher
specific lysis compared to M9-A2-270 [3]: higher specific lysis
CTL response (51Cr-release) [3]: elicited a response
binding affinity compared to M9-A2-270 [5]: lower binding affinity
binding to MHC class 1 allele A*02:01 (in words) [5]: high binding
HLA-A2 binding (HLA-A2): high affinity binding
IFN-γ response (ELISPOT) ([6]; first experiment, peptide-loaded DC (FIG. 14A), not observed in the 2nd experiment): moderate response

MPKAALLII [peptide 195]
IFN-γ response (ELISPOT) [7]: greatest activity; also recorded: gave an immune response

SYILVTALG [compound 174]
IFN-γ response (ELISPOT) [2]: interesting; also recorded: good immune responses

IVLGVILTK [peptide 203, MAGE-A9 peptide antigen]
IFN-γ response (ELISPOT) ([1]; restimulated with peptide alone): weak but significant reactivity

SVMGVYVGK [peptide 225, MAGE-A9 peptide antigen]
IFN-γ response (ELISPOT) ([1]; HLA-A11 mice, peptide-loaded DC or peptides alone): very strong; also recorded: very immunogenic

LMLGEFLKL [SurA2.M, survivin peptide antigen HLA-A2]
binding to MHC class 1 allele A*02:01 (in words) [5]: high binding
HLA-A2 binding (HLA-A2): high affinity binding

FMFQEALKL [peptide 102, MAGE-A9 peptide antigen]
IFN-γ response (ELISPOT) [4]: highest; also recorded: consistently observed
IFN-γ response (ELISPOT), significance ([4]; splenocytes stimulated with peptide-loaded DCs): statistically significant in two out of three experiments

FLWGSKAHA [MAGE-A9 270, MAGE-A9 peptide antigen]
CTL response (51Cr-release) [3]: elicited a response
binding to MHC class 1 allele A*02:01 (in words) [5]: high binding

VYYTLWSQF [compound 71]
IFN-γ response (ELISPOT) [2]: interesting

ALLIIVLGV [compound 199, MAGE-A9 peptide antigen]
IFN-γ response (ELISPOT) [4]: highest

EVDPAGHSY [peptide 167]
IFN-γ response (ELISPOT) ([6]; HLA-A1 mice, two experiments): very strong; also recorded: highly immunogenic

STFKNWPFL [SurA24, survivin peptide antigen HLA-A24]
binding to MHC class 1 allele A*02:01 (in words) [5]: high binding
Kinetic score ([5]; MHC class 1 allele A*02:01): 0.00
On-rate T1/2 ([5]; MHC class 1 allele A*02:01): 31.52 h
R-score ([5]; MHC class 1 allele A*02:01): 0.00
Off-rate T1/2 ([5]; MHC class 1 allele A*02:01, * = no significant, stable complex at end of measurement period): 7.2 min
REVEAL score ([5]; MHC class 1 allele A*02:01, Positive Control 100): 61.93
